Values after ≈ are worked out from the molar mass of the structure shown.
Key:
[1] = system: Mycobacterium tuberculosis; assay: Antimycobacterial activity against Mycobacterium tuberculosis H37Rv; type: functional; settings: Mycobacterium tuberculosis, H37Rv
[2] = Inhibition of Mycobacterium tuberculosis IMPDH
[3] = system: Mycobacterium tuberculosis; assay: Antimycobacterial activity against Mycobacterium tuberculosis H37Rv in logarithmic phase; type: functional
[4] = system: Mycobacterium tuberculosis; assay: Antimycobacterial activity against Mycobacterium tuberculosis H37Rv in hypoxia-induced latent phase; type: functional
[5] = system: Mycobacterium tuberculosis; assay: Antimycobacterial activity against non-replicating Mycobacterium tuberculosis; type: functional
[6] = system: Mycobacterium tuberculosis; assay: Growth inhibition of Mycobacterium tuberculosis H37Rv at 100 ug/ml relative to control; type: functional; settings: read-out: GI
[7] = system: Mycobacterium tuberculosis; assay: Antimycobacterial activity against Mycobacterium tuberculosis H37Rv ATCC 27294 by MABA; type: functional
[8] = Selectivity index, ratio of IC50 for African green monkey Vero cells to MIC for Mycobacterium tuberculosis H37Rv ATCC 27294; type: toxicity; settings: read-out: Selectivity Index
[9] = system: Mycobacterium tuberculosis; assay: Antimycobacterial activity against Mycobacterium tuberculosis; type: functional
[10] = system: Mycobacterium tuberculosis; assay: Potency index, ratio of pyrazinamide MIC to compound MIC for Mycobacterium tuberculosis H37Rv; type: functional
[11] = system: Mycobacterium tuberculosis; assay: Potency index, ratio of streptomycin MIC to compound MIC for Mycobacterium tuberculosis H37Rv; type: functional
[12] = system: Mycobacterium tuberculosis; assay: Potency index, ratio of isoniazid MIC to compound MIC for Mycobacterium tuberculosis H37Rv; type: functional
[13] = system: Mycobacterium tuberculosis; assay: Potency index, ratio of ciprofloxacin MIC to compound MIC for Mycobacterium tuberculosis H37Rv; type: functional
HEK293 = assay: Cytotoxicity against HEK293 cells after 24 hrs by MTT assay; type: cell-based; settings: Homo sapiens, HEK293, 24 h
[14] = system: Mycobacterium tuberculosis; assay: Antimycobacterial activity against Mycobacterium tuberculosis H37Rv after 5 days by MABA; type: functional; settings: 120 h
[15] = system: Mycobacterium tuberculosis; assay: Antimycobacterial activity against replicating Mycobacterium tuberculosis; type: functional

CC1(C)CCc2c(c3ccccc3c3nc(-c4c[nH]c5ccccc45)[nH]c23)O1
MIC [1]: 1.56 to 6.25 µg/mL (≈ 4.25 to 17 µM)

O=C(Cn1c(-c2cscn2)nc2ccccc21)Nc1ccc(F)cc1
IC50 [2]: 3 to 10 µM

N#Cc1ccc(NC(=O)Cn2c(-c3cscn3)nc3ccccc32)cc1
IC50 [2]: 3 to 10 µM

O=C(Cn1c(-c2cscn2)nc2ccccc21)Nc1ccc(Br)cc1
IC50 [2]: 3 µM

O=C(Cn1c(-c2cscn2)nc2ccccc21)Nc1cccc(Cl)c1
IC50 [2]: 3 to 10 µM

COc1ccc(-c2cn(Cc3ccc(Cl)cc3Cl)cc2C(c2ccccc2)n2ccnc2)cc1 (stereo not drawn)
MIC [1]: 1 µg/mL (≈ 2.05 µM)

O=C(Cn1c(-c2cscn2)nc2ccccc21)Nc1ccc(Cl)cc1
IC50 [2]: 3 to 10 µM

Clc1ccc(Cn2cc(-c3ccccc3)c(C(c3ccccc3)n3ccnc3)c2)c(Cl)c1 (stereo not drawn)
MIC [1]: 1 to 16 µg/mL (≈ 2.18 to 34.9 µM)

COc1ccc(-c2nc3cc(-c4ccc5[nH]c(-c6ccc(OC)cc6)nc5c4)ccc3[nH]2)cc1
MIC [3]: 0.5 to 16 µg/mL (≈ 1.12 to 35.8 µM) | MIC [4]: 0.5 to 16 µg/mL (≈ 1.12 to 35.8 µM)

Oc1ccc(-c2nc3ccc(-c4ccc5nc(-c6ccc(O)cc6)[nH]c5c4)cc3[nH]2)cc1
MIC [3]: 0.5 to 16 µg/mL (≈ 1.19 to 38.2 µM) | MIC [4]: 0.5 to 16 µg/mL (≈ 1.19 to 38.2 µM)

CCc1nc2ccc(C)cc2n1CCCCOc1ccccc1
MIC [5]: 0.056 to 2.6 µM

CCc1nc2ccc(C)cc2n1CCCCNc1ccccc1
MIC [5]: 0.056 to 2.6 µM

COc1cccc(-c2nc3ccc(-c4ccc5nc(-c6cccc(OC)c6)[nH]c5c4)cc3[nH]2)c1
MIC [3]: 0.5 to 16 µg/mL (≈ 1.12 to 35.8 µM) | MIC [4]: 0.5 to 16 µg/mL (≈ 1.12 to 35.8 µM)

CCc1nc2ccc(C)cc2n1CCCCNc1ccc(OCc2ccccc2)cc1
MIC [5]: 0.056 to 2.6 µM

COc1ccc2c(c1)cc(-c1nc(-c3ccccc3)c(-c3ccccc3)n1-c1ccc(C)cc1)c1nnnn12
inhibition of growth at 100 µg/mL [6]: 17 to 99%

Cc1ccccc1NC(=O)Cn1c(-c2cscn2)nc2ccccc21
IC50 [2]: 3 to 10 µM

CCCSc1nnc(-c2ncc([N+](=O)[O-])[nH]2)s1
MIC [7]: 3.13 to 6.25 µg/mL (≈ 11.5 to 23 µM) | selectivity ratio [8]: 0.3 to 0.6

COc1ccc(-n2c(-c3cc4cc(Cl)ccc4n4nnnc34)nc(-c3ccccc3)c2-c2ccccc2)cc1
inhibition of growth at 100 µg/mL [6]: 17 to 99%

Clc1ccc2c(c1)cc(-c1nc(-c3ccccc3)c(-c3ccccc3)n1-c1ccccc1)c1nnnn12
inhibition of growth at 100 µg/mL [6]: 17 to 99%

CCCS(=O)(=O)c1nnc(-c2ncc([N+](=O)[O-])[nH]2)s1
MIC [7]: > 6.25 µg/mL | selectivity ratio [8]: 0.3 to 0.6

O=C1/C(=C\c2ccccc2)SC(c2ccc(-n3ccnc3)cc2)N1Nc1ccccc1 (stereo not drawn)
MIC [9]: 14.3 to 49.7 µM (≈ 6.06 to 21.1 µg/mL)

Cc1ccc(Oc2cc3[nH]c(Cn4ccnc4)nc3cc2F)cc1
MIC [1]: 12.5 to 100 µg/mL (≈ 38.8 to 310 µM)

Cn1c(-c2cccc(Cl)c2Cl)nc2cc(-c3nc(-c4ccc(Cl)cc4)no3)ccc21
Ratio [10]: 2 | Ratio [11]: 4 | Ratio [12]: 4 | Ratio [13]: 2 | IC50 (HEK293): > 500 µg/mL | MIC [14]: 1.6 to 25 µg/mL (≈ 3.51 to 54.9 µM)

O=C1/C(=C\c2ccc(Cl)cc2)SC(c2ccc(-n3ccnc3)cc2)N1Nc1ccccc1 (stereo not drawn)
MIC [9]: 14.3 to 49.7 µM (≈ 6.55 to 22.8 µg/mL)

Cn1c(-c2cccc(Cl)c2F)nc2cc(-c3nc(Cc4cccc(Cl)c4)no3)ccc21
Ratio [10]: 2 | Ratio [11]: 4 | Ratio [12]: 4 | Ratio [13]: 2 | IC50 (HEK293): > 500 µg/mL | MIC [14]: 1.6 to 25 µg/mL (≈ 3.53 to 55.2 µM)

c1ccc(-c2nc(-c3cc4ccccc4n4nnnc34)n(-c3ccccc3)c2-c2ccccc2)cc1
inhibition of growth at 100 µg/mL [6]: 17 to 99%

Cc1ccc(-n2c(-c3cc4cc(Cl)ccc4n4nnnc34)nc(-c3ccccc3)c2-c2ccccc2)cc1
MIC99 [1]: 25 µg/mL (≈ 48.7 µM) | inhibition of growth at 100 µg/mL [6]: 17 to 99%

Cc1ccc(-n2c(-c3cc4ccccc4n4nnnc34)nc(-c3ccccc3)c2-c2ccccc2)cc1
inhibition of growth at 100 µg/mL [6]: 17 to 99%

CCc1nc2ccc(C)cc2n1CCCCNc1ccc(OC)cc1
MIC [5]: 0.056 to 2.6 µM

CCc1nc2ccc(C)cc2n1CCCCSc1ccc(Cl)cc1
MIC [5]: 0.056 to 2.6 µM

CCc1nc2ccc(C)cc2n1CCCCNc1cccc(C(F)(F)F)c1
MIC [5]: 0.056 to 2.6 µM

CCCc1cc(=O)oc2c1c(OC)cc1[nH]c(C(=O)OCC)[n+]([O-])c12
MIC [15]: > 50 µg/mL | MIC [5]: > 50 µg/mL

CC[S+]([O-])c1nnc(-c2ncc([N+](=O)[O-])[nH]2)s1 (stereo not drawn)
MIC [7]: 1.56 µg/mL (≈ 5.71 µM) | selectivity ratio [8]: 0.3 to 0.6

Cn1c(-c2cccc(Cl)c2Cl)nc2cc(-c3nc(-c4ccccc4Cl)no3)ccc21
Ratio [10]: 2 | Ratio [11]: 4 | Ratio [12]: 4 | Ratio [13]: 2 | IC50 (HEK293): 355 µg/mL (≈ 780 µM) | MIC [14]: 1.6 to 25 µg/mL (≈ 3.51 to 54.9 µM)

Fc1ccc(-c2cn(Cc3ccc(Cl)cc3Cl)cc2C(c2ccccc2)n2ccnc2)cc1 (stereo not drawn)
MIC [1]: 1 µg/mL (≈ 2.1 µM)

CCSc1nnc(-c2ncc([N+](=O)[O-])[nH]2)s1
MIC [7]: 3.13 to 6.25 µg/mL (≈ 12.2 to 24.3 µM) | selectivity ratio [8]: 0.3 to 0.6

COc1ccc(-n2c(-c3cc4cc(OC)ccc4n4nnnc34)nc(-c3ccccc3)c2-c2ccccc2)cc1
inhibition of growth at 100 µg/mL [6]: 17 to 99%

Fc1cc2nc(Cn3ccnc3)[nH]c2cc1Oc1ccccc1
MIC [1]: 12.5 to 100 µg/mL (≈ 40.5 to 324 µM)

O=C(Cn1c(-c2cscn2)nc2ccccc21)Nc1ccc(I)cc1
IC50 [2]: 3 to 10 µM
